Measurements taken from patent publication US20260132128A1, “COMPOUND FOR RECOVERING P53 MUTATION FUNCTION AND USE THEREOF” (SHENZHEN ZHONGGE BIOLOGICAL TECHNOLOGY CO., LTD., priority 2022, published 2026).
Read-outs that look alike come from different tables or passages of the source. Marks after values point to notes of the source that are not given here.

Experiments:
[1] = Liver microsome stability test, human (HLM); type: in vitro ADME; details: human liver microsomes, NADPH; read-out: T1/2 (min) Human
Description: (§1) The 10 mM test compound/ketanserin (Energy Chemical, Cat. No. E020711) stock solution was diluted with acetonitrile to 0.5 mM compound/reference compound. The frozen 100 mM NADPH (MCE, Cat. No. HYF003/CS-4998) was diluted with phosphate buffer solution to a concentration of 6 mM; 20 mg/mL HLM (BioIVT, Cat. No. X008067) or MLM (BioIVT, Cat. No. M00501) was diluted with phosphate buffer solution to a concentration of 0.75 mg/ml, and added to a 96-round well plate, respectively, and shaken evenly on an oscillator at 600 rpm. The above oscillated samples were pipetted 3 times with an electric pipettor and dispensed into a new 96-well plate (containing NADPH group (n=2), NADPH-free group was added at 0 and 45 min (n=1)), and there were a total of 5 groups of 0, 5, 15, 30 and 45 min, respectively. After pre-incubation of the 5 groups of samples at 37° C. for 5 min, glacial acetonitrile was quickly added to the 0 min group for precipitation, and after rapid vortexing, K-Buffer or NADPH was added with an electric pipettor. The remaining groups were sequentially added with 6 mM NADPH to start the reaction in the order of 45, 30, 15 and 5 min samples, and K-Buffer solution was added to the NADPH-free group. After mixing at 1000 rpm in an oscillating mixer for 10 s, they were continuously incubated at 37° C. for the corresponding time. The reaction was terminated by quickly adding glacial acetonitrile internal standard using an electric pipettor; after vortexing at 900 rpm for 10 seconds, heat sealing was performed, oscillation was performed on an oscillator for 10 minutes, centrifugation was performed at 4000 rpm for 50 minutes, the supernatant was collected and diluted with pure water, and the test compound and the reference compound were quantified by LC-MS/MS analysis.

[2] = Liver microsome stability test, mouse (MLM); type: in vitro ADME; details: mouse liver microsomes, NADPH; read-out: T1/2 (min) Mouse
Description: as §1

[3] = target: T1, CYP 3A4 (Homo sapiens, UniProt P08684); test: CYP 3A4 time-dependent inhibition test; type: in vitro ADME; details: midazolam substrate
T1 construct: purchased BioIVT X008067
Description: CYP 3A4 and the test compound or mifepristone of various concentrations were added to a 96-deep well plate for pre-incubation. The plate was placed in a water bath and preheated at 37° C. for 5 min. For the 0 min pre-incubation samples, midazolam substrate was added to the incubation plate, then 10 mM NADPH solution was added, and the reaction was carried out in a 37° C. water bath for 5 min; for the 30 min pre-incubation samples with NADPH, 10 mM NADPH solution was added to the incubation plate, pre-incubated in a 37° C. water bath for 30 min, and then midazolam substrate was added and reacted in a 37° C. water bath for 5 min; for the 30 min pre-incubation samples without NADPH, the incubation plate was pre-incubated in a 37° C. water bath for 30 min, then midazolam substrate was added, 10 mM NADPH solution was added, and the reaction was carried out in a 37° C. water bath for 5 min. After the reaction was completed, the quenching solution (500 nM tolbutamide (Bide Pharmaceuticals, Cat. No. BD154332) and 10 nM terfenadine (Sigma, Cat. No. T96532)) were added to quench the reaction, and the plate was centrifuged at 3,220 g for 40 min at 4° C. The supernatant was pipetted into a new plate, the supernatant was diluted with pure water and mixed well, and the sample was analyzed using UPLC-MS/MS.

[4] = target: T2, p53 Y220C (Homo sapiens, UniProt P04637, P309S/R273H/Y220C); test: DNA binding test (HTRF): binding of P53Y220C protein to DNA; type: biochemical; details: HTRF, activation of p53 Y220C (aa 94-312) binding to biotin DNA
T2 construct: a truncated mutant containing only amino acids 94-312 of p53; made in house; host or cells: E. coli

[5] = target: T3, p53 Y220C (Homo sapiens, UniProt P04637, Y220C); test: as above; type: biochemical; details: multiple ratio of EC50 of the compound to the reference compound, DNA binding test
T3 construct: a truncated mutant containing only amino acids 94-312 of p53; made in house; host or cells: E. coli

[6] = test system: NUGC-3 cells; test: NUGC-3 cell proliferation assay (CTG); type: cell-based, human; details: for GI50: Homo sapiens, NUGC-3, 144 h, 6 days, CTG; for Compound GI50 (nM)/Reference compound GI50 (nM): multiple ratio of GI50 of the compound to the reference compound
Method in brief: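 NUGC-3 cells (250/well), plated overnight, were exposed 6 days at 37° C to compound, 10 doses of 1:3 dilutions from 10 μM top final. Viability by CellTiter-Glo luminescence; inhibition relative to 0.1% DMSO and blank, GI50 from variable-slope nonlinear fit.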

[7] = test system: BxPC-3 cells; test: BxPC-3 cell proliferation test (CTG); type: cell-based; details: Homo sapiens, 144 h, 6 days
Description: To detect the inhibitory effects of the aforementioned compounds on the proliferation ability of BxPC-3 cells, 125 BxPC-3 cells (ATCC®CRL-1687) were seeded into a 384-well plate (Corning 3765), 35 μL per well, and placed in a constant temperature incubator at 37° C. and 5% CO2 overnight. Then, 40 nL of the compound was added to the 384-well plate using an Echo 655 Liquid Handler, with a maximum final concentration of 10 μM, 1:3 serial dilution, and in a total of 10 doses. Incubation was performed at 37° C., 5% CO2 for 6 days. The plate was taken out from the incubator and equilibrated at room temperature for 10 minutes. 20 μL of CTG (Promage G7572) was added to each well of the plate according to the platemap. The plate was centrifuged at 1000 rpm for 1 minute. The lysis of cells was induced by mixing on a shaker for 2 minutes. The plate was centrifuged at 1000 rpm for 1 minute. Incubation was performed at room temperature for 10 minutes to stabilize luminescence signals. Luminescence values were recorded by Envision (PerkinElmer 2105-0020). GraphPad 9.0 was used to fit the inhibition rate and compound concentration into a nonlinear regression curve (dose response-variable slope) to calculate GI50, inhibition rate={1−(A−B)/(C−B)}*100%, A=signal value of compound; B=average signal of blank control; C=average signal of negative control (wherein the negative control was 0.1% DMSO).

[8] = Pharmacokinetic test in mice; type: in vivo; details: male, ICR, mouse, plasma
Description: ICR male mice (15 to 35 g, 5 to 10 weeks old, Shanghai Xipuer-Bikai Experimental Animal Co., Ltd.) were selected as test animals in this study. The LC-MS/MS method was used to quantitatively determine drug concentrations in the plasma of mice at different time points after intravenous injection or oral gavage administration of the test compound to evaluate the pharmacokinetic characteristics of the compound in mice. The clear solution of the test compound was injected into ICR mice via the tail vein (without fasting, solvent: 40% hydroxypropyl-β-cyclodextrin) and administered to ICR mice by oral gavage (fasting for 10 to 14 hours, free drinking water, solvent: 0.2% hydroxypropyl cellulose, 0.5% Tween 80). For intravenous administration, blood was collected from the submandibular venous plexus at 0.033, 0.083, 0.25, 0.5, 1, 2, 4, 8, and 24 hours after administration, placed in an anticoagulant tube with EDTA-K2 (Jiangsu Kangjian Medical Supplies Co., Ltd.), mixed, and centrifuged at 2-8° C., 6800 g for 6 minutes to obtain plasma; for oral gavage administration, blood was collected from the submandibular venous plexus at 0.083, 0.25, 0.5, 1, 2, 4, 6, 8, and 24 hours after administration, placed in an anticoagulant tube with EDTA-K2 (Jiangsu Kangjian Medical Supplies Co., Ltd.), mixed, and centrifuged at 2-8° C., 6800 g for 6 minutes to obtain plasma. The blood drug concentration was determined by LC-MS/MS, and the relevant pharmacokinetic parameters were calculated by the non-compartmental linear logarithmic trapezoidal method using Phoenix WinNonlin™ Version 7.0 (Pharsight, USA) pharmacokinetic software.

[9] = test system: Caco-2 cells; test: Caco-2 cell permeability test; type: in vitro ADME; details: Caco-2, 10 μM, 120 min
Description: Caco-2 cells (ATCC, Cat. No. HTB-37) were inoculated to a 96-well plate (Corning HTS Transwell, Cat. No. 3391) at 1.25×10^5/cm2, and the culture medium (DMEM+10% FBS+1% Penicillin-Streptomycin Liquid (100×)+1% NEAA) was replaced every 3 to 4 days. The plate was placed in an incubator at 37° C. with 5% CO2 until a confluent cell monolayer was formed after 21 to 28 days. Before the transport experiment, the culture medium was removed from the cell culture plate, and the plate was washed twice with pre-warmed HBSS buffer (10 mM HEPES, pH 7.4), and 100 μL of HBSS buffer was added to each well. After incubation at 37° C. for 30 minutes, the TEER value was measured using a cell resistance meter (Millicell-ERS2) to confirm the integrity and density of the monolayer cells. The HBSS buffer was discarded, the upper plate containing the cell monolayer membrane was transferred to the corresponding receiving plate, 10 mM test compound stock solution was diluted to a concentration of 10 μM with HBSS transport buffer containing 0.5% BSA, and it was added to the apical side (A side) and basolateral side (B side), respectively. Incubation was carried out for 120 min at 37° C., 5% CO2, and 95% relative humidity, and the permeation of the test compound from A side to B side or from B side to A side and the efflux rate of the compound were determined. The test compound and the reference compound were quantified by LC-MS/MS analysis based on the peak area ratio of analyte/internal standard. The apparent permeability coefficient Papp (cm/s) was calculated using the following formula:
[formula] • wherein, dCr/dt represented the functional relation between cumulative concentration of compound in receptor compartment and time; V represented the volume of solution in receptor compartment (0.1 mL at apical side, and 0.25 mL at basolateral side); A represented the transport surface area, i.e., the monolayer cell area was 0.0804 cm^2; CO represented the initial concentration of compound in donor compartment.
The efflux ratio was calculated using the following formula: […]
The percent recovery was calculated using the following formula:
[formula] [formula] • wherein, Vd represented the volume of donor compartment (0.1 mL on the apical side and 0.25 mL on the basolateral side); C and Cr represented the final concentrations of the transported compound in the donor and receptor compartment, respectively; Cc represented the compound concentration in cell lysate; Vc represented the volume of insert well (which was 0.1 mL in this experiment).

[10] = 0 min pre-incubation, read-out: IC50 (μM) 0 min
[11] = 30 min pre-incubation with NADPH, read-out: IC50 (μM) 30 min, with NADPH
[12] = 30 min pre-incubation without NADPH, read-out: IC50 (μM) 30 min, without NADPH

T1 sequence (P08684 whole entry): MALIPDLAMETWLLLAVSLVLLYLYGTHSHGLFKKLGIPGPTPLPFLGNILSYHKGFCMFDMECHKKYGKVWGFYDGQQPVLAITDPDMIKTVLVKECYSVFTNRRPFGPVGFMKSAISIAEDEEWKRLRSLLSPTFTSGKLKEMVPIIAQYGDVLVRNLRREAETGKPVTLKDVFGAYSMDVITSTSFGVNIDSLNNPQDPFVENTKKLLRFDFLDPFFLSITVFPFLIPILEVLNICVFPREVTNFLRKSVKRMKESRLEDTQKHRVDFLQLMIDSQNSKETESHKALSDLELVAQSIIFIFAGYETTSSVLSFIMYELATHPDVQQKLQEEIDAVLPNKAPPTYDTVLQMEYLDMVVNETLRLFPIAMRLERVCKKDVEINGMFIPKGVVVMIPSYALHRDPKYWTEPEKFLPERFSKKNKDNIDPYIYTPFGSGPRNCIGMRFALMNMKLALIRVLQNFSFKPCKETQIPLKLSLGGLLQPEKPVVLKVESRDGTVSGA

CNC(=O)c1ccc(NCC#Cc2cc3c(N[C@@H]4CCN(C)C[C@@H]4F)cccc3n2CC(F)(F)F)c(OC)c1 [Reference compound, reference compound]
half-life [1]: 24.9 min
half-life [2]: 17.1 min
IC50 [3, 10]: 3.24 µM
IC50 [3, 11]: 0.58 µM
IC50 [3, 12]: 2.55 µM

CNC(=O)c1ccc(NCC#Cc2cc3c(NC4CCC(N5CC6(COC6)C5)CC4F)cccn3c2CC(F)(F)F)c(OC)c1 (single isomer, unassigned) [Compound 65d]
EC50 [4]: < 0.1 µM
Compound EC50 (nM)/Reference compound EC50 (nM) [5]: B (B: EC50 of the reference compound<EC50 of the compound≤3.0*EC50 of the reference compound)
GI50 [6]: < 1 µM
Compound GI50 (nM)/Reference compound GI50 (nM) [6]: B (B: GI50 of the reference compound < GI50 of the compound ≤ 3.0 * GI50 of the reference compound)
GI50 [7]: < 1 µM
half-life [1]: 65.3 min
half-life [2]: 16.9 min

[2H]C([2H])([2H])NC(=O)c1ccc(NCC#Cc2nc3c(NC4CCC(N5CCOCC5)CC4F)cccn3c2CC(F)(F)F)c(OC([2H])([2H])[2H])c1 (single isomer, unassigned) [Compound 70d]
EC50 [4]: < 0.1 µM
Compound EC50 (nM)/Reference compound EC50 (nM) [5]: A (A: EC50 of the compound≤EC50 of the reference compound)
GI50 [6]: < 1 µM
Compound GI50 (nM)/Reference compound GI50 (nM) [6]: A (A: GI50 of the compound ≤ GI50 of the reference compound)
IC50 [3, 10]: 5.95 µM
IC50 [3, 11]: 1.91 µM
IC50 [3, 12]: 6.65 µM
AUC ([8]; 25 mg/kg, po 25 mpk): 59700 ng·h/mL
Cmax ([8]; 25 mg/kg, po 25 mpk): 13100 ng/mL
clearance ([8]; 2.5 mg/kg, iv 2.5 mpk): 11 mL/min/kg

COc1cc(S(C)(=O)=O)ccc1NCC#Cc1nc2c(NC3CC[C@@H](N4CC5(COC5)C4)C[C@@H]3F)cccn2c1CC(F)(F)F (stereo partly drawn) [Compound 48]
Compound EC50 (nM)/Reference compound EC50 (nM) [5]: B (B: EC50 of the reference compound<EC50 of the compound≤3.0*EC50 of the reference compound)
Compound GI50 (nM)/Reference compound GI50 (nM) [6]: B (B: GI50 of the reference compound < GI50 of the compound ≤ 3.0 * GI50 of the reference compound)
Efflux Ratio [9]: 2.58
Papp A to B ([9]; A to B): 2.50 10^−6 cm/s
Papp B to A ([9]; B to A): 6.43 10^−6 cm/s
